Legend:
Nav 1.5 = Nav 1.5 (Homo sapiens (Human), UniProt Q14524); test: Nav 1.5 in vitro PX assay (PatchXpress whole cell voltage clamp); type: cell-based; conditions: 293 cells stably transfected with Nav 1.5; second part of table; read-out: Nav1.5 PX IC50
Protocol: Nav 1.5 In Vitro PX Assay
293 cells stably transfected with Nav 1.5 were recorded in whole cell voltage clamp mode with the PatchXpress automated electrophysiology system according the manufacturer's specifications (Molecular Devices, LLC, Sunnyvale, Calif.). Cells were held at a holding potential of −50 mV to inactivate sodium channels. To elicit sodium currents the voltage was changed to −120 mV to recover a portion of the channels, followed by delivery of test pulses of 20 msec duration to 0 mV, at 0.1 Hz. A single concentration of test compound was applied to cells for a duration of 5 minutes. Peak sodium current was measured at the end of the compound addition period to determine percent inhibition. A minimum of two cells were tested per concentration. IC50 curves were fitted to percent inhibition as a function of concentration.

Nav 1.7 = Nav 1.7 (Homo sapiens (Human), UniProt Q15858); test: Nav 1.7 in vitro PX assay (PatchXpress whole cell voltage clamp); type: cell-based; conditions: 293 cells, human Nav1.7, partially inactivated state; read-out: Nav1.7 PX IC50 IP
Chain of Nav 1.7 (Q15858 whole entry): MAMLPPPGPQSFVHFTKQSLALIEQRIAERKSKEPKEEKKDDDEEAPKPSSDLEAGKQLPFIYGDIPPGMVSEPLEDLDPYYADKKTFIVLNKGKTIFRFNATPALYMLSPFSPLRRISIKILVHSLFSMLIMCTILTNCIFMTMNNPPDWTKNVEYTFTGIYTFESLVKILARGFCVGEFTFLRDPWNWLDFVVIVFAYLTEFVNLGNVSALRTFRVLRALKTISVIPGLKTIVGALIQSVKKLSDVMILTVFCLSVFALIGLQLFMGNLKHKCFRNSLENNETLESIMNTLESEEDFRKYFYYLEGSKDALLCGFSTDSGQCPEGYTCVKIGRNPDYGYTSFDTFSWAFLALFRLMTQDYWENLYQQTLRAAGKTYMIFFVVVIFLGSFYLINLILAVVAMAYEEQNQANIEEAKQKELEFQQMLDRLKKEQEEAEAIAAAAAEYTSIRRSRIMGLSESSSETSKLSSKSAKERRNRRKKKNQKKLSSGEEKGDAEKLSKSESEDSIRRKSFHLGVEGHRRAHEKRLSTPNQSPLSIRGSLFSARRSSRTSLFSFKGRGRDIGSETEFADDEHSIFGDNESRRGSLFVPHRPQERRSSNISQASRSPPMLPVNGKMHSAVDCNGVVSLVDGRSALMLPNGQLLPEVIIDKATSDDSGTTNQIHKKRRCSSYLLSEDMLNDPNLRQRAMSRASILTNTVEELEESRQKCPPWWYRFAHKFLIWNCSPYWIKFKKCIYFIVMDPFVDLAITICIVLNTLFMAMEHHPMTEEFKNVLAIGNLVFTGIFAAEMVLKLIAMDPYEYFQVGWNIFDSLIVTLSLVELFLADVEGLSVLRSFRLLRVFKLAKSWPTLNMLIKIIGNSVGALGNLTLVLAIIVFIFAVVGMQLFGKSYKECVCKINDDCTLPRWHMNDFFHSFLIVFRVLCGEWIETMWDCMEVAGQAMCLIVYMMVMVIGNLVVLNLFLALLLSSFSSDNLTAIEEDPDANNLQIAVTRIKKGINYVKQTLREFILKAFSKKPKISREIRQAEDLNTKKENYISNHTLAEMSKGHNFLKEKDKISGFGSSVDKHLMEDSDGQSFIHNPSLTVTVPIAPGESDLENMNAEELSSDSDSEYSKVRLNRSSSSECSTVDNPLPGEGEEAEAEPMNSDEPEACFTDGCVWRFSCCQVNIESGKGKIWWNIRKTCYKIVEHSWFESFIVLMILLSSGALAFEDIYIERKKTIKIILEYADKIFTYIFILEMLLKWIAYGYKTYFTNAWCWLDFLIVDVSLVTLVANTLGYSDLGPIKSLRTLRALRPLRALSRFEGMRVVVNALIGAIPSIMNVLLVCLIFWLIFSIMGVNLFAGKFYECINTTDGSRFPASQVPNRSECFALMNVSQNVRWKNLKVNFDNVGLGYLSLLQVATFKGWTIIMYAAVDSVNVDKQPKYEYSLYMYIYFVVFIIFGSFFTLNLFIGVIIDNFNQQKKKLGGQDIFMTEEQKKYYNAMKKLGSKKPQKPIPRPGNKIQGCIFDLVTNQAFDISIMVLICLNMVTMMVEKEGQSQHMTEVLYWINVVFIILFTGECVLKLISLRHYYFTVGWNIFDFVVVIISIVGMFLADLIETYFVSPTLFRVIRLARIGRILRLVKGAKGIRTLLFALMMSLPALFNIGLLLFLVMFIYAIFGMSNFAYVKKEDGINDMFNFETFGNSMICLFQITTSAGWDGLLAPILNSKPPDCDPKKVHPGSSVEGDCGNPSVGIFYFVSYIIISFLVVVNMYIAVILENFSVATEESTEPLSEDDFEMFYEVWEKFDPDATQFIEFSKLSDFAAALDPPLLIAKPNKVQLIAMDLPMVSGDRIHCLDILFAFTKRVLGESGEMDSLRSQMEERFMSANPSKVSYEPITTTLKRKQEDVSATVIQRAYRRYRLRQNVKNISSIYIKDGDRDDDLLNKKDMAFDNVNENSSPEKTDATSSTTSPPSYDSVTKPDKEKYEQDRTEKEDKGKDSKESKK
How it was run: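 Partially inactivated channel state (holding potential for 20–50% inactivation) probed in human Nav1.7-transfected 293 cells by automated patch clamp, test pulse −10 mV for 20 msec.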

Chain of Nav 1.5 (Q14524 whole entry): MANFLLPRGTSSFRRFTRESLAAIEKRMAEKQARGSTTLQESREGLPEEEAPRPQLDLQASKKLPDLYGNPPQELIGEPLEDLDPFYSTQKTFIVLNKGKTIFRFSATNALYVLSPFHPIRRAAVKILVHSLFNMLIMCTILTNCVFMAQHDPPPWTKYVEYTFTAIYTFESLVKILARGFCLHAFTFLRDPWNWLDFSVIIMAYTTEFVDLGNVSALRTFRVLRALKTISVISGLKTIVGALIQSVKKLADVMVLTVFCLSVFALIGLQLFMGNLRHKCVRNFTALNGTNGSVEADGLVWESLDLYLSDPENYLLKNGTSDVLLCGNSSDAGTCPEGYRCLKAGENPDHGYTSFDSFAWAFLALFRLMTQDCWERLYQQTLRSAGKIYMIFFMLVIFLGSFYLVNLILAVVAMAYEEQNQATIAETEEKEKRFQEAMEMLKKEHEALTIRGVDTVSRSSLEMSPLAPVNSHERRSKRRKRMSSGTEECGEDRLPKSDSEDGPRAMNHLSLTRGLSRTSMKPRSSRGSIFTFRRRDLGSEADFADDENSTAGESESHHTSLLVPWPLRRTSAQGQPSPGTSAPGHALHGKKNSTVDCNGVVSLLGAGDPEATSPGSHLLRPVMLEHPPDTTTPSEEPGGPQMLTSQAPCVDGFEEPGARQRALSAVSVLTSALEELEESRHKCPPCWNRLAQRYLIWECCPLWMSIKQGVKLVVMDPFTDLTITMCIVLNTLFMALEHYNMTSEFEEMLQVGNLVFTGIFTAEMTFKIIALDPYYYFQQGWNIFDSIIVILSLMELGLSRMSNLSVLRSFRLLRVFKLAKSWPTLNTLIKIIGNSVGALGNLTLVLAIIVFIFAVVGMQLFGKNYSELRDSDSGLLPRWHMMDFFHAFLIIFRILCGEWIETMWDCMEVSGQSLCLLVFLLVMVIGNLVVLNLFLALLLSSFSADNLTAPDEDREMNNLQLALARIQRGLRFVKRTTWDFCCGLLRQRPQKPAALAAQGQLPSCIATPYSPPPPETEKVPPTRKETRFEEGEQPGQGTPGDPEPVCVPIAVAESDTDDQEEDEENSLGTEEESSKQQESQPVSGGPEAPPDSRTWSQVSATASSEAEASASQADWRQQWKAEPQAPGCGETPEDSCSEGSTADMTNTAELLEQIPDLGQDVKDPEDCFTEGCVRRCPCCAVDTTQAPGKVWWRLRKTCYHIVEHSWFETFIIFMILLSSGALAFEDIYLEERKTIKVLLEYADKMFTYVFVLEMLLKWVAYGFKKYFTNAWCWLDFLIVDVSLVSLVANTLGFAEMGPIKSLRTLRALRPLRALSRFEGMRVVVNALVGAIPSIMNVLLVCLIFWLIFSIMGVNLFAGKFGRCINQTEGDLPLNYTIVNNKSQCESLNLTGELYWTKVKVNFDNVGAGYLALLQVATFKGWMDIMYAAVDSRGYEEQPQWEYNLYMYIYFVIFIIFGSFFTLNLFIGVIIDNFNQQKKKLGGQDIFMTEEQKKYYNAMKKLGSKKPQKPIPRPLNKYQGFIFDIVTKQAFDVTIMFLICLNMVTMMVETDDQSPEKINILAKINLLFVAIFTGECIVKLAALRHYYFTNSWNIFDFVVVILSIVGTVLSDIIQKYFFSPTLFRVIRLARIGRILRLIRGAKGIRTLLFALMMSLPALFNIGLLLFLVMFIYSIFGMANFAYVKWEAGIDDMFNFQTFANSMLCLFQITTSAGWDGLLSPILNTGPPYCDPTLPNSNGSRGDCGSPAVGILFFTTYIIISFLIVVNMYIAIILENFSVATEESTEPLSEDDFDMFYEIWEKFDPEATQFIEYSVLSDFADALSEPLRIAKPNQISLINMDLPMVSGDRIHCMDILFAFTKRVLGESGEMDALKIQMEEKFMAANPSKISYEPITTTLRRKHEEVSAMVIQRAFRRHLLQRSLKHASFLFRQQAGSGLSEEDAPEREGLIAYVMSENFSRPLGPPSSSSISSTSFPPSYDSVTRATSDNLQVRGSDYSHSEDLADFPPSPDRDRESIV

IC50 (Nav 1.7) [nM] | Compound | IC50 (Nav 1.5) [nM]
58 | COc1cc(-c2cccc(F)c2)ccc1-c1nccc2cc(S(=O)(=O)Nc3ncns3)ccc12 [Example 369, 1-(3′-FLUORO-3-METHOXY-[1,1′-BIPHENYL]-4-YL)-N-(1,2,4-THIADIAZOL-5-YL)ISOQUINOLINE-6-SULFONAMIDE] | > 30000
153 | N#CCOc1cc(Cl)ccc1-c1nccc2cc(S(=O)(=O)Nc3nccs3)ccc12 [Example 373, 1-(4-CHLORO-2-(CYANOMETHOXY)PHENYL)-N-(THIAZOL-2-YL)ISOQUINOLINE-6-SULFONAMIDE 2,2,2-TRIFLUOROACETATE] | > 30000
309 | N#CCOc1cc(C(F)(F)F)ccc1-c1nccc2cc(S(=O)(=O)Nc3nccs3)ccc12 [Example 374, 1-(2-(CYANOMETHOXY)-4-(TRIFLUOROMETHYL)PHENYL)-N-(THIAZOL-2-YL)ISOQUINOLINE-6-SULFONAMIDE] | > 30000
544 | N#CCOc1ccccc1-c1nccc2cc(S(=O)(=O)Nc3nccs3)ccc12 [Example 375, 1-(2-(CYANOMETHOXY)PHENYL)-N-(THIAZOL-2-YL)ISOQUINOLINE-6-SULFONAMIDE 2,2,2-TRIFLUOROACETATE] | > 30000
111 | COc1cc(C(F)(F)F)ccc1-c1ncc(F)c2cc(S(=O)(=O)Nc3ncns3)ccc12 [Example 392, 4-FLUORO-1-(2-METHOXY-4-(TRIFLUOROMETHYL)PHENYL)-N-(1,2,4-THIADIAZOL-5-YL)ISOQUINOLINE-6-SULFONAMIDE] | > 30000
304 | COc1ccccc1-c1ncc(F)c2cc(S(=O)(=O)Nc3ncns3)ccc12 [Example 393, 4-FLUORO-1-(2-METHOXYPHENYL)-N-(1,2,4-THIADIAZOL-5-YL)ISOQUINOLINE-6-SULFONAMIDE] | > 30000
338 | COc1cc(F)ccc1-c1ncc(F)c2cc(S(=O)(=O)Nc3ncns3)ccc12 [Example 394, 4-FLUORO-1-(4-FLUORO-2-METHOXYPHENYL)-N-(1,2,4-THIADIAZOL-5-YL)ISOQUINOLINE-6-SULFONAMIDE] | > 30000
442 | COc1cc(F)ccc1-c1nccc2cc(S(=O)(=O)Nc3nccs3)ccc12 [Example 405, 1-(4-FLUORO-2-METHOXYPHENYL)-N-(THIAZOL-2-YL)ISOQUINOLINE-6-SULFONAMIDE] | > 30000
456 | COc1ccccc1-c1nccc2cc(S(=O)(=O)Nc3nccs3)ccc12 [Example 406, 1-(2-METHOXYPHENYL)-N-(THIAZOL-2-YL)ISOQUINOLINE-6-SULFONAMIDE] | > 30000
272 | COc1cc(C(F)(F)F)ccc1-c1nccc2cc(S(=O)(=O)Nc3nc(Cl)cs3)ccc12 [Example 419, N-(4-CHLOROTHIAZOL-2-YL)-1-(2-METHOXY-4-(TRIFLUOROMETHYL)PHENYL)ISOQUINOLINE-6-SULFONAMIDE] | > 30000
786 | COc1cc(C(F)(F)F)ccc1-c1nccc2cc(S(=O)(=O)Nc3nc(C#N)cs3)ccc12 [Example 421, N-(4-CYANOTHIAZOL-2-YL)-1-(2-METHOXY-4-(TRIFLUOROMETHYL)PHENYL)ISOQUINOLINE-6-SULFONAMIDE] | > 30000
77 | COc1cc(-c2ccccc2C)ccc1-c1nccc2cc(S(=O)(=O)Nc3ccncn3)ccc12 [Example 441, 1-(3-METHOXY-2′-METHYL-[1,1′-BIPHENYL]-4-YL)-N-(PYRIMIDIN-4-YL)ISOQUINOLINE-6-SULFONAMIDE] | > 30000
87 | COc1cc(-c2cccc(C)c2)ccc1-c1nccc2cc(S(=O)(=O)Nc3ccncn3)ccc12 [Example 442, 1-(3-METHOXY-3′-METHYL-[1,1′-BIPHENYL]-4-YL)-N-(PYRIMIDIN-4-YL)ISOQUINOLINE-6-SULFONAMIDE] | > 30000
280 | COc1cc(-c2ccc(C)cc2)ccc1-c1nccc2cc(S(=O)(=O)Nc3ccncn3)ccc12 [Example 443, 1-(3-METHOXY-4′-METHYL-[1,1′-BIPHENYL]-4-YL)-N-(PYRIMIDIN-4-YL)ISOQUINOLINE-6-SULFONAMIDE] | > 30000
185 | COc1cc(-c2cccc(F)c2F)ccc1-c1nccc2cc(S(=O)(=O)Nc3ccncn3)ccc12 [Example 444, 1-(2′,3′-difluoro-3-methoxy-[1,1′-biphenyl]-4-yl)-N-(pyrimidin-4-yl)isoquinoline-6-sulfonamide] | > 30000
218 | COc1cc(-c2ccc(F)cc2F)ccc1-c1nccc2cc(S(=O)(=O)Nc3ccncn3)ccc12 [Example 445, 1-(2′,4′-DIFLUORO-3-METHOXY-[1,1′-BIPHENYL]-4-YL)-N-(PYRIMIDIN-4-YL)ISOQUINOLINE-6-SULFONAMIDE] | > 30000
152 | COc1cc(-c2cc(F)ccc2F)ccc1-c1nccc2cc(S(=O)(=O)Nc3ccncn3)ccc12 [Example 446, 1-(2′,5′-DIFLUORO-3-METHOXY-[1,1′-BIPHENYL]-4-YL)-N-(PYRIMIDIN-4-YL)ISOQUINOLINE-6-SULFONAMIDE] | > 30000
237 | COc1cc(-c2c(F)cccc2F)ccc1-c1nccc2cc(S(=O)(=O)Nc3ccncn3)ccc12 [Example 447, 1-(2′,6′-DIFLUORO-3-METHOXY-[1,1′-BIPHENYL]-4-YL)-N-(PYRIMIDIN-4-YL)ISOQUINOLINE-6-SULFONAMIDE] | > 30000
38 | COc1cc(-c2ccc(F)c(F)c2)ccc1-c1nccc2cc(S(=O)(=O)Nc3ccncn3)ccc12 [Example 448, 1-(3′,4′-DIFLUORO-3-METHOXY-[1,1′-BIPHENYL]-4-YL)-N-(PYRIMIDIN-4-YL)ISOQUINOLINE-6-SULFONAMIDE] | > 30000
34 | COc1cc(-c2cc(F)cc(F)c2)ccc1-c1nccc2cc(S(=O)(=O)Nc3ccncn3)ccc12 [Example 449, 1-(3′,5′-DIFLUORO-3-METHOXY-[1,1′-BIPHENYL]-4-YL)-N-(PYRIMIDIN-4-YL)ISOQUINOLINE-6-SULFONAMIDE] | > 30000
284 | COc1cc(C(F)F)c(OC)cc1-c1nccc2cc(S(=O)(=O)Nc3nccs3)ccc12 [Example 452, 1-(4-(DIFLUOROMETHYL)-2,5-DIMETHOXYPHENYL)-N-(THIAZOL-2-YL)ISOQUINOLINE-6-SULFONAMIDE] | > 30000
532 | COc1cc(C(F)F)c(C2CC2)cc1-c1nccc2cc(S(=O)(=O)Nc3ccncn3)ccc12 [Example 459, 1-(5-CYCLOPROPYL-4-(DIFLUOROMETHYL)-2-METHOXYPHENYL)-N-(PYRIMIDIN-4-YL)ISOQUINOLINE-6-SULFONAMIDE] | > 30000
106 | COc1cc(Cl)ccc1-c1ccc(-c2nccc3cc(S(=O)(=O)Nc4ccncn4)ccc23)c(OC)c1 [Example 460, 1-(4′-CHLORO-2′,3-DIMETHOXY-[1,1′-BIPHENYL]-4-YL)-N-(PYRIMIDIN-4-YL)ISOQUINOLINE-6-SULFONAMIDE] | > 30000
203 | COc1cc(Oc2ccc(F)cc2)ccc1-c1nccc2cc(S(=O)(=O)Nc3ccncn3)ccc12 [Example 462, 1-(4-(4-FLUOROPHENOXY)-2-METHOXYPHENYL)-N-(PYRIMIDIN-4-YL)ISOQUINOLINE-6-SULFONAMIDE] | > 30000
380 | COc1cc(Oc2cccc(F)c2)ccc1-c1nccc2cc(S(=O)(=O)Nc3ccncn3)ccc12 [Example 464, 1-(4-(3-FLUOROPHENOXY)-2-METHOXYPHENYL)-N-(PYRIMIDIN-4-YL)ISOQUINOLINE-6-SULFONAMIDE] | > 30000
227 | COc1ccccc1-c1ccc(-c2nccc3cc(S(=O)(=O)Nc4ccncn4)ccc23)c(OC)c1 [Example 466, 1-(2′,3-DIMETHOXY-[1,1′-BIPHENYL]-4-YL)-N-(PYRIMIDIN-4-YL)ISOQUINOLINE-6-SULFONAMIDE] | > 30000
204 | COc1cccc(-c2ccc(-c3nccc4cc(S(=O)(=O)Nc5ccncn5)ccc34)c(OC)c2)c1 [Example 467, 1-(3,3′-DIMETHOXY-[1,1′-BIPHENYL]-4-YL)-N-(PYRIMIDIN-4-YL)ISOQUINOLINE-6-SULFONAMIDE] | > 30000
359 | COc1ccc(-c2ccc(-c3nccc4cc(S(=O)(=O)Nc5ccncn5)ccc34)c(OC)c2)cc1 [Example 468, 1-(3,4′-DIMETHOXY-[1,1′-BIPHENYL]-4-YL)-N-(PYRIMIDIN-4-YL)ISOQUINOLINE-6-SULFONAMIDE] | > 30000
170 | COc1cc(-c2ccc(C)c(C)c2)ccc1-c1nccc2cc(S(=O)(=O)Nc3ccncn3)ccc12 [Example 469] | > 30000
180 | COc1cc(-c2cc(C)cc(C)c2)ccc1-c1nccc2cc(S(=O)(=O)Nc3ccncn3)ccc12 [Example 470] | > 30000

Compound | IC50 (Nav 1.7) [nM] | IC50 (Nav 1.5) [nM]
COc1cc(-c2cc(F)cc(F)c2)ccc1-c1nccc2cc(S(=O)(=O)Nc3ccnc(C)n3)ccc12 [Example 370, 1-(3′,5′-DIFLUORO-3-METHOXY-[1,1′-BIPHENYL]-4-YL)-N-(2-METHYLPYRIMIDIN-4-YL)ISOQUINOLINE-6-SULFONAMIDE] | 813 | > 30000
COc1cc(-c2cc(F)cc(F)c2)ccc1-c1nccc2cc(S(=O)(=O)Nc3cc(C)ncn3)ccc12 [Example 371, 1-(3′,5′-DIFLUORO-3-METHOXY-[1,1′-BIPHENYL]-4-YL)-N-(6-METHYLPYRIMIDIN-4-YL)ISOQUINOLINE-6-SULFONAMIDE] | 545 | > 30000
N#CCOc1ccccc1-c1ncc(F)c2cc(S(=O)(=O)Nc3nccs3)ccc12 [Example 398, 1-(2-(CYANOMETHOXY)PHENYL)-4-FLUORO-N-(THIAZOL-2-YL)ISOQUINOLINE-6-SULFONAMIDE] | 197 | > 30000
